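Where inhibition never reached the appropriate level, the endpoint shown equals the highest concentration tested. Otherwise, values were interpolated linearly from a five-concentration, 48-hour dose response in 96-well plates. GI50 marks 50% less growth.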 Activity calls are given as the source filed them. Rule as the data show it: active = GI50 up to about 1.1 µM and inactive = higher.
Legend:
Assay in all cases: DTP human tumour cell line panel, 48 h
SK-MEL-28 = test system: SK-MEL-28
RPMI-8226 = test system: RPMI-8226
SNB-75 = test system: SNB-75
OVCAR-8 = test system: OVCAR-8
TK-10 = test system: TK-10
786-0 = test system: 786-0
MCF7 = test system: MCF7
OVCAR-5 = test system: OVCAR-5
NCI-H460 = test system: NCI-H460
K562 = test system: K562
OVCAR-4 = test system: OVCAR-4
SW-620 = test system: SW-620
SF-295 = test system: SF-295
Malme-3M = test system: Malme-3M
BT-549 = test system: BT-549
LOX IMVI = test system: LOX IMVI
MDA-MB-231 = test system: MDA-MB-231
OVCAR-3 = test system: OVCAR-3
HOP-92 = test system: HOP-92

Measured: GI50

COc1cccc(-c2cc(=O)c3ccccc3o2)c1N
inactive: SK-MEL-28 10.1 µM | RPMI-8226 > 76.6 µM | SNB-75 51.6 µM | OVCAR-8 53 µM | TK-10 > 100 µM | 786-0 71 µM | MCF7 > 100 µM | OVCAR-5 > 91 µM | NCI-H460 > 59 µM | K562 > 75.3 µM | OVCAR-4 84.3 µM | SW-620 15.5 µM | SF-295 > 66.1 µM | Malme-3M 3.62 µM | BT-549 > 100 µM | LOX IMVI > 100 µM | MDA-MB-231 26.9 µM | OVCAR-3 > 100 µM | HOP-92 > 83.4 µM

O=C1N/C(=N/N=C\C(O)C(O)C(O)C(O)CO)N/C1=C\c1ccc(Cl)cc1 (stereo unspecified)
inactive: SK-MEL-28 8.55 µM | RPMI-8226 > 62.8 µM | SNB-75 2.3 µM | OVCAR-8 1.53 µM | TK-10 4.8 µM | 786-0 5.9 µM | MCF7 4.3 µM | OVCAR-5 19.5 µM | NCI-H460 15.7 µM | K562 10.6 µM | OVCAR-4 7.46 µM | SW-620 8.87 µM | SF-295 9.23 µM | Malme-3M 2.76 µM | BT-549 5.52 µM | LOX IMVI 5.5 µM | MDA-MB-231 4.81 µM | OVCAR-3 2.18 µM | HOP-92 1.8 µM

C#CCSc1cnc2ccccc2c1Sc1c[nH]c2ccccc2c1=O
inactive: SK-MEL-28 34.8 µM | RPMI-8226 4.2 µM | SNB-75 15.9 µM | OVCAR-8 24.7 µM | TK-10 40.2 µM | 786-0 12.4 µM | MCF7 6.82 µM | OVCAR-5 32.7 µM | NCI-H460 11.7 µM | K562 9.35 µM | OVCAR-4 20.9 µM | SW-620 24.8 µM | SF-295 24.1 µM | Malme-3M 19.4 µM | BT-549 28.7 µM | LOX IMVI 13.8 µM | MDA-MB-231 31.9 µM | OVCAR-3 23.4 µM | HOP-92 16.1 µM

CC(=O)c1sc2c(c1O)c(=O)n(-c1ccccc1)c(=S)n2-c1ccccc1
inactive: SK-MEL-28 > 100 µM | RPMI-8226 > 100 µM | SNB-75 58.7 µM | OVCAR-8 > 100 µM | TK-10 > 100 µM | 786-0 > 100 µM | MCF7 > 100 µM | OVCAR-5 > 100 µM | NCI-H460 > 100 µM | K562 > 100 µM | OVCAR-4 > 100 µM | SW-620 > 100 µM | SF-295 > 100 µM | Malme-3M > 100 µM | BT-549 95.3 µM | LOX IMVI > 100 µM | MDA-MB-231 > 100 µM | OVCAR-3 > 100 µM | HOP-92 > 100 µM
